Assay results taken from the NIST ThermoML archive (doi:10.1016/j.jct.2017.07.024).
± gives the expanded uncertainty stated by the source.

What was measured:
[1] = for surface tension liquid-gas: Maximal bubble pressure; for mass density: 100 kPa, Liquid, Vibrating tube method
[2] = refractive index (Na D-line) (dimensionless); details: 100 kPa, Liquid, Standard Abbe refractometry

CCCCCn1cc[n+](C)c1.C[C@@H](O)[C@H](N)C(=O)[O-] [1-pentyl-3-methylimidazolium DL-threoninate]
Details | mass density, [1] [kg/m3] | refractive index, [2] | surface tension liquid-gas, [1] [mN/m]
288.15 K | 1107.7 ± 0.68 | 1.508 ± 0.0013 | 38.2 ± 0.5
293.15 K | 1104.39 ± 0.68 | 1.5065 ± 0.0013 | 37.8 ± 0.5
298.15 K | 1101.08 ± 0.68 | 1.5048 ± 0.0013 | 37.6 ± 0.5
303.15 K | 1097.75 ± 0.68 | 1.5032 ± 0.0013 | 37.2 ± 0.5
308.15 K | 1094.43 ± 0.68 | 1.5018 ± 0.0013 | 36.9 ± 0.5
313.15 K | 1091.16 ± 0.68 | 1.5001 ± 0.0013 | 36.6 ± 0.5
318.15 K | 1087.7 ± 0.68 | 1.4987 ± 0.0013 | 36.2 ± 0.5
323.15 K | 1084.55 ± 0.68 | 1.497 ± 0.0013 | 35.9 ± 0.5
328.15 K | 1081.25 ± 0.68 | 1.4955 ± 0.0013 | 35.6 ± 0.5

CCCn1cc[n+](C)c1.C[C@@H](O)[C@H](N)C(=O)[O-] [1-propyl-3-methylimidazolium DL-threoninate]
Details | mass density, [1] [kg/m3] | refractive index, [2] | surface tension liquid-gas, [1] [mN/m]
288.15 K | 1151.33 ± 0.7 | 1.5147 ± 0.0013 | 41.4 ± 0.5
293.15 K | 1148.8 ± 0.7 | 1.5131 ± 0.0013 | 41.1 ± 0.5
298.15 K | 1144.52 ± 0.7 | 1.5116 ± 0.0013 | 40.7 ± 0.5
303.15 K | 1141.13 ± 0.7 | 1.5101 ± 0.0013 | 40.4 ± 0.5
308.15 K | 1137.76 ± 0.69 | 1.5086 ± 0.0013 | 40.1 ± 0.5
313.15 K | 1134.38 ± 0.69 | 1.5071 ± 0.0013 | 39.8 ± 0.5
318.15 K | 1130.9 ± 0.69 | 1.5055 ± 0.0013 | 39.4 ± 0.5
323.15 K | 1127.5 ± 0.69 | 1.5039 ± 0.0013 | 39.1 ± 0.5
328.15 K | 1124.07 ± 0.69 | 1.5026 ± 0.0013 | 38.7 ± 0.5

CCCCCCn1cc[n+](C)c1.C[C@@H](O)[C@H](N)C(=O)[O-] [1-hexyl-3-methylimidazolium DL-threoninate]
Details | mass density, [1] [kg/m3] | refractive index, [2] | surface tension liquid-gas, [1] [mN/m]
288.15 K | 1089.98 ± 0.68 | 1.5049 ± 0.0013 | 37 ± 0.5
293.15 K | 1086.67 ± 0.68 | 1.5033 ± 0.0013 | 36.6 ± 0.5
298.15 K | 1083.36 ± 0.68 | 1.5019 ± 0.0013 | 36.3 ± 0.5
303.15 K | 1080.02 ± 0.68 | 1.5001 ± 0.0013 | 36 ± 0.5
308.15 K | 1076.7 ± 0.68 | 1.4988 ± 0.0013 | 35.7 ± 0.5
313.15 K | 1073.42 ± 0.67 | 1.4971 ± 0.0013 | 35.4 ± 0.5
318.15 K | 1069.96 ± 0.67 | 1.4957 ± 0.0013 | 35 ± 0.5
323.15 K | 1066.82 ± 0.67 | 1.494 ± 0.0013 | 34.7 ± 0.5
328.15 K | 1063.52 ± 0.67 | 1.4925 ± 0.0013 | 34.4 ± 0.5
